Patent publication US9624170B2, “4-(piperrazin-1-yl)-pyrrolidin-2-one compounds as monoacylglycerol lipase (MAGL) inhibitors” (TAKEDA PHARMACEUTICAL COMPANY LIMITED, priority 2013, dated 2017)

target: T1, human MAGL (His-hMAGL) (Homo sapiens, UniProt Q99685); assay: Measurement of MAGL inhibitory activity by mass spectrometry; type: biochemical; details: MAGL inhibitory rate, test compound 10 μM, His-hMAGL, substrate 2-arachidonylglycerol, RapidFire-mass spectrometry
T1 construct: made in house; host or cells: Escherichia coli BL21(DE3)
T1 sequence (Q99685 1-303): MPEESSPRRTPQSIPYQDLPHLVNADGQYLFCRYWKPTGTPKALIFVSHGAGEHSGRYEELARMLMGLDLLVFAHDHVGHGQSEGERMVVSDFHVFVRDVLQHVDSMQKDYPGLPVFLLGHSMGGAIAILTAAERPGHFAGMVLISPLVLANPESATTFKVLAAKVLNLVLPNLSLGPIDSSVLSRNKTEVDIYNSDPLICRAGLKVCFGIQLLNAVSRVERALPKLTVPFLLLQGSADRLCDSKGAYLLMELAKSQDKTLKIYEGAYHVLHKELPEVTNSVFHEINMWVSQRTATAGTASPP
Procedure, shortened: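 His-tagged human MAGL was reacted with 150 μM 2-arachidonylglycerol substrate (stock, added by 5 μL) for 10 min at room temperature, then stopped with formic acid. Arachidonic acid product was quantified by RapidFire–triple-quadrupole MS in negative SRM mode, corrected by arachidonic acid-d8, and converted to percent inhibition.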

For `O=C(c1nccs1)N1CCN([C@@H]2CC(=O)N(c3ccc4c(c3)CCN4c3ncc(C(F)(F)F)cn3)C2)CC1` [Example 271, (4R)-4-(4-(1,3-thiazol-2-ylcarbonyl)piperazin-1-yl)-1-(1-(5-(trifluoromethyl)pyrimidin-2-yl)-2,3-dihydro-1H-indol-5-yl)pyrrolidin-2-one], which inhibition at 10 µM is on record?
The inhibition at 10 µM was 101%.

Which inhibition at 10 µM does the source give for `Cc1ncnc(C)c1-c1cccc(N2CC(N3CCN(C(=O)c4nccs4)CC3)CC2=O)c1` (centres unmarked) [Example 273, 1-(3-(4,6-Dimethylpyrimidin-5-yl)phenyl)-4-(4-(1,3-thiazol-2-ylcarbonyl)piperazin-1-yl)pyrrolidin-2-one] here?
The inhibition at 10 µM was 100%.

How did the inhibition at 10 µM turn out when `Cc1cccc(-c2ccc(N3CC(N4CCN(C(=O)c5nccs5)CC4)CC3=O)cc2)n1` (centres unmarked) [Example 274, 1-(4-(6-methylpyridin-2-yl)phenyl)-4-(4-(1,3-thiazol-2-ylcarbonyl)piperazin-1-yl)pyrrolidin-2-one] was run?
Its inhibition at 10 µM is 96%.

`O=C(c1nccs1)N1CCN(C2CC(=O)N(c3cccc(-c4ccc(F)cc4Cl)c3)C2)CC1` (centres unmarked) [Example 275, 1-(2′-chloro-4′-fluorobiphenyl-3-yl)-4-(4-(1,3-thiazol-2-ylcarbonyl)piperazin-1-yl)pyrrolidin-2-one] was tested. Which inhibition at 10 µM did it give?
The inhibition at 10 µM was 103%.

With `O=C(c1nccs1)N1CCN(C2CC(=O)N(c3ccc(F)c(-c4ccc(F)cc4Cl)c3)C2)CC1` (centres unmarked) [Example 276, 1-(2′-chloro-4′,6-difluorobiphenyl-3-yl)-4-(4-(1,3-thiazol-2-ylcarbonyl)piperazin-1-yl)pyrrolidin-2-one] as the compound, how does the inhibition at 10 µM read?
The inhibition at 10 µM was 102%.

Which inhibition at 10 µM does the source give for `O=C(c1nccs1)N1CCN(C2CC(=O)N(c3ccc(F)c(-c4ccccc4Cl)c3)C2)CC1` (centres unmarked) [Example 277, 1-(2′-chloro-6-fluorobiphenyl-3-yl)-4-(4-(1,3-thiazol-2-ylcarbonyl)piperazin-1-yl)pyrrolidin-2-one] here?
Its inhibition at 10 µM is 98%.

For `Cc1cc(C)cc(-n2ccc3cc(N4CC(N5CCN(C(=O)c6nccs6)CC5)CC4=O)ccc32)c1` (centres unmarked) [Example 279, 1-(1-(3,5-dimethylphenyl)-1H-indol-5-yl)-4-(4-(1,3-thiazol-2-ylcarbonyl)piperazin-1-yl)pyrrolidin-2-one], which inhibition at 10 µM is on record?
The inhibition at 10 µM was 101%.

For `O=C(c1nccs1)N1CCN(C2CC(=O)N(c3ccc4c(ccn4-c4cccc(C(F)(F)F)c4)c3)C2)CC1` (centres unmarked) [Example 280, 4-(4-(1,3-thiazol-2-ylcarbonyl)piperazin-1-yl)-1-(1-(3-(trifluoromethyl)phenyl)-1H-indol-5-yl)pyrrolidin-2-one], which inhibition at 10 µM is on record?
Its inhibition at 10 µM is 101%.

Which inhibition at 10 µM does the source give for `O=C(c1nccs1)N1CCN(C2CC(=O)N(c3ccc4c(ccn4-c4nccc(C(F)(F)F)n4)c3)C2)CC1` (centres unmarked) [Example 281, 4-(4-(1,3-thiazol-2-ylcarbonyl)piperazin-1-yl)-1-(1-(4-(trifluoromethyl)pyrimidin-2-yl)-1H-indol-5-yl)pyrrolidin-2-one] here?
Its inhibition at 10 µM is 99%.

`O=C(c1nccs1)N1CCN(C2CC(=O)N(c3cccc(-c4c(F)cc(F)cc4F)c3)C2)CC1` (centres unmarked) [Example 282, 4-(4-(1,3-thiazol-2-ylcarbonyl)piperazin-1-yl)-1-(2′,4′,6′-trifluorobiphenyl-3-yl)pyrrolidin-2-one] was tested. Which inhibition at 10 µM did it give?
Its inhibition at 10 µM is 100%.

`O=C(c1nccs1)N1CCN(C2CC(=O)N(c3cccc(-c4ccc(Cl)cc4Cl)c3)C2)CC1` (centres unmarked) [Example 283, 1-(2′,4′-dichlorobiphenyl-3-yl)-4-(4-(1,3-thiazol-2-ylcarbonyl)piperazin-1-yl)pyrrolidin-2-one] was tested. Which inhibition at 10 µM did it give?
The inhibition at 10 µM was 101%.

How did the inhibition at 10 µM turn out when `O=C(c1nccs1)N1CCN(C2CC(=O)N(c3cccc(-c4ccc(F)c(Cl)c4)c3)C2)CC1` (centres unmarked) [Example 284, 1-(3′-chloro-4′-fluorobiphenyl-3-yl)-4-(4-(1,3-thiazol-2-ylcarbonyl)piperazin-1-yl)pyrrolidin-2-one] was run?
The inhibition at 10 µM was 101%.

`O=C(c1nccs1)N1CCN(C2CC(=O)N(c3cccc(-c4ccccc4-c4ccccc4)c3)C2)CC1` (centres unmarked) [Example 285, 1-(1,1′:2′,1″-terphenyl-3-yl)-4-(4-(1,3-thiazol-2-ylcarbonyl)piperazin-1-yl)pyrrolidin-2-one] was tested. Which inhibition at 10 µM did it give?
Its inhibition at 10 µM is 101%.

For `O=C(O)c1ccc(-c2cccc(N3CC(N4CCN(C(=O)c5nccs5)CC4)CC3=O)c2)cc1` (centres unmarked) [Example 286, 3′-(2-oxo-4-(4-(1,3-thiazol-2-ylcarbonyl)piperazin-1-yl)pyrrolidin-1-yl)biphenyl-4-carboxylic acid], which inhibition at 10 µM is on record?
The inhibition at 10 µM was 91%.

`O=C(c1nccs1)N1CCN(C2CC(=O)N(c3cccc(-c4cccc(C(F)(F)F)c4)c3)C2)CC1` (centres unmarked) [Example 287, 4-(4-(1,3-thiazol-2-ylcarbonyl)piperazin-1-yl)-1-(3′-(trifluoromethyl)biphenyl-3-yl)pyrrolidin-2-one] was tested. Which inhibition at 10 µM did it give?
Its inhibition at 10 µM is 103%.

`O=C(c1nccs1)N1CCN(C2CC(=O)N(c3cccc(-c4ccc(C(F)(F)F)cc4)c3)C2)CC1` (centres unmarked) [Example 288, 4-(4-(1,3-thiazol-2-ylcarbonyl)piperazin-1-yl)-1-(4′-(trifluoromethyl)biphenyl-3-yl)pyrrolidin-2-one] was tested. Which inhibition at 10 µM did it give?
Its inhibition at 10 µM is 97%.

Which inhibition at 10 µM does the source give for `CCOc1ccccc1-c1cccc(N2CC(N3CCN(C(=O)c4nccs4)CC3)CC2=O)c1` (centres unmarked) [Example 289, 1-(2′-ethoxybiphenyl-3-yl)-4-(4-(1,3-thiazol-2-ylcarbonyl)piperazin-1-yl)pyrrolidin-2-one] here?
The inhibition at 10 µM was 103%.

For `O=C(c1nccs1)N1CCN(C2CC(=O)N(c3cccc(-c4ccc(F)c(F)c4)c3)C2)CC1` (centres unmarked) [Example 290, 1-(3′,4′-difluorophenyl-3-yl)-4-(4-(1,3-thiazol-2-ylcarbonyl)piperazin-1-yl)pyrrolidin-2-one], which inhibition at 10 µM is on record?
The inhibition at 10 µM was 101%.

Which inhibition at 10 µM does the source give for `O=C(c1nccs1)N1CCN(C2CC(=O)N(c3cccc(-c4ccccc4Oc4ccccc4)c3)C2)CC1` (centres unmarked) [Example 291, 1-(2′-phenoxybiphenyl-3-yl)-4-(4-(1,3-thiazol-2-ylcarbonyl)piperazin-1-yl)pyrrolidin-2-one] here?
The inhibition at 10 µM was 104%.

Which inhibition at 10 µM does the source give for `O=C(c1nccs1)N1CCN(C2CC(=O)N(c3cccc(-c4ccc(OC(F)(F)F)cc4)c3)C2)CC1` (centres unmarked) [Example 292, 4-(4-(1,3-thiazol-2-ylcarbonyl)piperazin-1-yl)-1-(4′-(trifluoromethoxy)biphenyl-3-yl)pyrrolidin-2-one] here?
Its inhibition at 10 µM is 93%.

With `O=C(c1nccs1)N1CCN(C2CC(=O)N(c3cccc(-c4cccc(Cl)c4Cl)c3)C2)CC1` (centres unmarked) [Example 293, 1-(2′,3′-dichlorophenyl-3-yl)-4-(4-(1,3-thiazol-2-ylcarbonyl)piperazin-1-yl)pyrrolidin-2-one] as the compound, how does the inhibition at 10 µM read?
The inhibition at 10 µM was 103%.

For `O=C(c1nccs1)N1CCN(C2CC(=O)N(c3cccc(-c4csc5ccccc45)c3)C2)CC1` (centres unmarked) [Example 294, 1-(3-(1-benzothiophen-3-yl)phenyl)-4-(4-(1,3-thiazol-2-ylcarbonyl)piperazin-1-yl)pyrrolidin-2-one], which inhibition at 10 µM is on record?
Its inhibition at 10 µM is 100%.

`N#Cc1ccc(-c2cccc(N3CC(N4CCN(C(=O)c5nccs5)CC4)CC3=O)c2)cc1` (centres unmarked) [Example 295, 3′-(2-oxo-4-(4-(1,3-thiazol-2-ylcarbonyl)piperazin-1-yl)pyrrolidin-1-yl)biphenyl-4-carbonitrile] was tested. Which inhibition at 10 µM did it give?
Its inhibition at 10 µM is 98%.

How did the inhibition at 10 µM turn out when `O=C(c1nccs1)N1CCN(C2CC(=O)N(c3cccc(-c4ccc(F)cc4F)c3)C2)CC1` (centres unmarked) [Example 296, 1-(2′,4′-difluorobiphenyl-3-yl)-4-(4-(1,3-thiazol-2-ylcarbonyl)piperazin-1-yl)pyrrolidin-2-one] was run?
Its inhibition at 10 µM is 102%.

How did the inhibition at 10 µM turn out when `O=C(c1nccs1)N1CCN(C2CC(=O)N(c3cccc(-c4cccc(OC(F)(F)F)c4)c3)C2)CC1` (centres unmarked) [Example 297, 4-(4-(1,3-thiazol-2-ylcarbonyl)piperazin-1-yl)-1-(3′-(trifluoromethoxy)biphenyl-3-yl)pyrrolidin-2-one] was run?
Its inhibition at 10 µM is 103%.

How did the inhibition at 10 µM turn out when `O=C(c1nccs1)N1CCN(C2CC(=O)N(c3cccc(-c4ccccc4OC(F)(F)F)c3)C2)CC1` (centres unmarked) [Example 298, 4-(4-(1,3-thiazol-2-ylcarbonyl)piperazin-1-yl)-1-(2′-(trifluoromethoxy)biphenyl-3-yl)pyrrolidin-2-one] was run?
Its inhibition at 10 µM is 101%.

For `O=C(c1nccs1)N1CCN(C2CC(=O)N(c3cccc(-c4cccc(F)c4F)c3)C2)CC1` (centres unmarked) [Example 299, 1-(2′,3′-difluorobiphenyl-3-yl)-4-(4-(1,3-thiazol-2-ylcarbonyl)piperazin-1-yl)pyrrolidin-2-one], which inhibition at 10 µM is on record?
Its inhibition at 10 µM is 102%.

`O=C(c1nccs1)N1CCN(C2CC(=O)N(c3cccc(-c4cc(Cl)ccc4Cl)c3)C2)CC1` (centres unmarked) [Example 300, 1-(2′,5′-dichlorobiphenyl-3-yl)-4-(4-(1,3-thiazol-2-ylcarbonyl)piperazin-1-yl)pyrrolidin-2-one] was tested. Which inhibition at 10 µM did it give?
Its inhibition at 10 µM is 101%.

For `Cc1cc(F)ccc1-c1cccc(N2CC(N3CCN(C(=O)c4nccs4)CC3)CC2=O)c1` (centres unmarked) [Example 301, 1-(4′-fluoro-2′-methylbiphenyl-3-yl)-4-(4-(1,3-thiazol-2-ylcarbonyl)piperazin-1-yl)pyrrolidin-2-one], which inhibition at 10 µM is on record?
The inhibition at 10 µM was 104%.

With `CS(=O)(=O)Nc1ccccc1-c1cccc(N2CC(N3CCN(C(=O)c4nccs4)CC3)CC2=O)c1` (centres unmarked) [Example 302, N-(3′-(2-oxo-4-(4-(1,3-thiazol-2-ylcarbonyl)piperazin-1-yl)pyrrolidin-1-yl)biphenyl-2-yl)methanesulfonamide] as the compound, how does the inhibition at 10 µM read?
Its inhibition at 10 µM is 98%.

How did the inhibition at 10 µM turn out when `CC(=O)Nc1ccccc1-c1cccc(N2CC(N3CCN(C(=O)c4nccs4)CC3)CC2=O)c1` (centres unmarked) [Example 303, N-(3′-(2-oxo-4-(4-(1,3-thiazol-2-ylcarbonyl)piperazin-1-yl)pyrrolidin-1-yl)biphenyl-2-yl)acetamide] was run?
Its inhibition at 10 µM is 88%.

For `O=C(c1nccs1)N1CCN(C2CC(=O)N(c3cccc(-c4ccc(Cl)cc4F)c3)C2)CC1` (centres unmarked) [Example 304, 1-(4′-chloro-2′-fluorobiphenyl-3-yl)-4-(4-(1,3-thiazol-2-ylcarbonyl)piperazin-1-yl)pyrrolidin-2-one], which inhibition at 10 µM is on record?
The inhibition at 10 µM was 100%.
